In patent US20060058286A1, “Methods of treating HIV infection” (priority 2004, published 2006):

Columns and labels:
HIV-1 NL4-3 [1] = assay: Two-drug combination study with Compound 1 (combination indices); assay type: cell-based; settings: for Combination Indices at 50% HIV Inhibition (Confidence Interval) / Combination Indices at 75% HIV Inhibition (Confidence Interval) / Combination Indices at 90% HIV Inhibition (Confidence Interval): 95% CI in parentheses; for Overall Result: overall antiviral effect of the two-drug combination with Compound 1, all ratios and effective levels
Protocol: (§1) Virus and cell lines. The T-cell line, MT-2 was obtained through the AIDS Research and Reference Reagent Program, NIAID and was contributed by Dr. D. Richman. The cell line was cultured in RPMI 1640 medium supplemented with 10% fetal bovine serum, 2 mM L-glutamine and sub-cultured twice a week. The NL4-3 strain of HIV-1 was obtained from the AIDS Research and Reference Reagent Program. Both virus stocks were amplified and titered in MT-2 cells using a virus infectivity assay.
(§2) Drug Susceptibility and Cytotoxicity Assays. For drug susceptibility assays, MT-2 cells were infected with HIV-1 NL4-3 at an MOI of 0.001, and seeded into 96-well microtiter plates (2.5×10^5 cells/ml) containing serial dilutions of test compounds. […] Each drug ratio consisted of an array of 3-fold serial dilutions, and was performed in quadruplicate. The plates were incubated at 37° C./5% CO2. The MT-2 cells infected with HIV-1 NL4-3 were incubated for 5 days. On day-five post-infection, 20 μl from each well was harvested and quantitated by a reverse transcriptase (RT) assay or an MTS assay. Cytotoxicity assays were performed using uninfected cells, exposed to the same drug combinations, and incubated for five days. Cell viability was determined by an XTT assay. The CC50 values were calculated by using the exponential form of the median effect equation as mentioned below for calculation of EC50.
Analysis of Drug Combination Effects. For determination of CI values, drugs were diluted in a fixed ratio and multiple ratios were analyzed. The drug serial dilutions spanned a range of concentrations near the EC50 value of each compound, so that equivalent antiviral activities could be compared. Concentration-response curves were estimated for each individual drug and every combination using the median-effect equation. The equation was fit using a nonlinear regression routine (Proc Nlin) in PC SAS version 8.01 (SAS Institute Inc., SAS Version 8.01, Cary, N.C.: SAS Institute Inc., 1990).
(§3) In this equation, Fa stands for “fraction affected,” and represents the fraction of the viral load that has been inactivated.
To assess antiviral effects of different drug combination treatments, combination indices (CIs) were calculated according to Chou and Rideout. The combination index was computed as CI=[D]1/[Dm]1+[D]2/[Dm]2
In this equation [Dm]1 and [Dm]2 are the concentrations of drugs that would individually produce a specific level of effect, while [D]1 and [D]2 are the concentrations of drugs in combination that would produce the same level of effect.
Theoretically, additivity is implied if the CI is equal to one, synergy if the CI is less than one, and antagonism if the CI is greater than one. […] At best, we can construct a range that contains the likely values for the CI, given the noise in the data. In this report, these ranges are reported in parentheses next to each point estimate of the CI. […] If the range fell entirely above 1.0, we would infer antagonistic behavior. If the range were to include 1.0, we would infer additivity.

HIV-1 NL4-3 [2] = assay: microbe, parasite or virus in culture
Protocol: as §1, §2, §3
In carrying out the combination experiments below, the EC50 for Compound 1 and each comparator compound was determined during the course of each study, and used in the subsequent data analysis.

[3] = combination with Compound 1, EC50 ratio 1:1 (Compound 1:comparator)
[4] = combination with Compound 1, EC50 ratio 1:2.5 (Compound 1:comparator)
[5] = combination with Compound 1, EC50 ratio 2.5:1 (Compound 1:comparator)
[6] = Human immunodeficiency virus 1, NL43, MT2, 120 h

Compound | Combination Indices at 50% HIV Inhibition (Confidence Interval) (HIV-1 NL4-3 [1]; [3]) | Combination Indices at 75% HIV Inhibition (Confidence Interval) (HIV-1 NL4-3 [1]; [3]) | Combination Indices at 90% HIV Inhibition (Confidence Interval) (HIV-1 NL4-3 [1]; [3]) | Combination Indices at 50% HIV Inhibition (Confidence Interval) (HIV-1 NL4-3 [1]; [4]) | Combination Indices at 75% HIV Inhibition (Confidence Interval) (HIV-1 NL4-3 [1]; [4]) | Combination Indices at 90% HIV Inhibition (Confidence Interval) (HIV-1 NL4-3 [1]; [4]) | Combination Indices at 50% HIV Inhibition (Confidence Interval) (HIV-1 NL4-3 [1]; [5]) | Combination Indices at 75% HIV Inhibition (Confidence Interval) (HIV-1 NL4-3 [1]; [5]) | Overall Result (HIV-1 NL4-3 [1]) | Overall Result (HIV-1 NL4-3 [1]; listed as saquinavir) | EC50 (HIV-1 NL4-3 [2]; [6]) | Combination Indices at 90% HIV Inhibition (Confidence Interval) (HIV-1 NL4-3 [1]; [5]) | Overall Result (HIV-1 NL4-3 [1]; listed as didanosine) | Overall Result (HIV-1 NL4-3 [1]; listed as zidovudine) | combination effect at the 50% effective level (HIV-1 NL4-3 [1]; combination with Compound 1) | combination effect at the 75% and 90% effective levels (HIV-1 NL4-3 [1]; combination with Compound 1) | Overall Result (HIV-1 NL4-3 [1]; listed as indinavir) | Overall Result (HIV-1 NL4-3 [1]; listed as T-20) | EC50 (HIV-1 NL4-3 [2]; NL4-3) | Overall Result (HIV-1 NL4-3 [1]; listed as atazanavir)
CC(C)(C)NC(=O)[C@@H]1C[C@@H]2CCCC[C@@H]2CN1C[C@@H](O)[C@H](Cc1ccccc1)NC(=O)[C@H](CC(N)=O)NC(=O)c1ccc2ccccc2n1 [Saquinavir, saquinavir] | 0.65 (0.49, 0.80) | 0.85 (0.56, 1.14) | 1.20 (0.55, 1.84) | 0.55 (0.42, 0.68) | 0.97 (0.65, 1.29) | 1.81 (0.86, 2.77) | 0.47 (0.38, 0.56) | 0.60 (0.44, 0.75) | Additive- | additive to synergistic | 11 nM | – | – | – | – | – | – | – | – | –
CON(Cc1ccc(F)cc1)C(=O)/C=C(\O)C(=O)O [Compound 1, (Z)-3-[(4-Fluoro-benzyl)-methoxy-carbamoyl]-2-hydroxy-acrylic acid] | – | – | – | – | – | – | – | – | synergistic or additive-synergistic | – | 155 nM | – | – | – | – | – | – | – | – | –
O=c1[nH]cnc2c1ncn2[C@H]1CC[C@@H](CO)O1 [Didanosine, didanosine] | 0.20 (0.14, 0.25) | 0.27 (0.17, 0.37) | 0.40 (0.16, 0.64) | 0.16 (0.12, 0.20) | 0.21 (0.14, 0.28) | 0.31 (0.13, 0.49) | 0.31 (0.27, 0.36) | 0.32 (0.26, 0.39) | Synergistic | – | 270 nM | 0.35 (0.23, 0.47) | synergistic | – | – | – | – | – | – | –
Cc1cn([C@H]2C[C@H](N=[N+]=[N-])[C@@H](CO)O2)c(=O)[nH]c1=O [Zidovudine, zidovudine] | 0.21 (0.16, 0.26) | 0.15 (0.10, 0.20) | 0.12 (0.06, 0.18) | 0.33 (0.26, 0.40) | 0.23 (0.16, 0.29) | 0.16 (0.09, 0.24) | 0.21 (0.18, 0.24) | 0.16 (0.12, 0.19) | Synergistic | – | 2 nM | 0.13 (0.08, 0.17) | – | synergistic | – | – | – | – | – | –
Nc1nc(NC2CC2)c2ncn([C@H]3C=C[C@@H](CO)C3)c2n1 [Abacavir, abacavir] | 0.66 (0.48, 0.84) | 0.89 (0.55, 1.91) | 1.20 (0.48, 1.91) | 0.58 (0.45, 0.71) | 0.92 (0.62, 1.21) | 1.46 (0.72, 2.20) | 0.65 (0.44, 0.86) | 0.88 (0.49, 1.28) | Additive | – | 740 nM | 1.20 (0.36, 2.05) | – | – | synergy | additivity | – | – | – | –
CC(C)(C)NC(=O)[C@@H]1CN(Cc2cccnc2)CCN1C[C@@H](O)C[C@@H](Cc1ccccc1)C(=O)N[C@H]1c2ccccc2C[C@H]1O [Indinavir, indinavir] | 0.64 (0.42, 0.85) | 1.17 (0.63, 1.71) | 2.15 (0.53, 3.78) | 0.92 (0.68, 1.16) | 1.07 (0.68, 1.46) | 1.24 (0.51, 1.97) | 0.41 (0.29, 0.53) | 0.70 (0.42, 0.97) | Additive- | – | 6 nM | 1.19 (0.40, 1.97) | – | – | – | – | additive to synergistic | – | – | –
enfuvirtide | 0.74 (0.58, 0.89) | 0.95 (0.67, 1.24) | 1.25 (0.66, 1.83) | 0.72 (0.55, 0.89) | 0.69 (0.46, 0.91) | 0.68 (0.33, 1.02) | 1.04 (0.82, 1.27) | 0.95 (0.66, 1.24) | Additive- | – | – | 0.87 (0.45, 1.29) | – | – | – | – | – | synergistic to additive | 7 nM | –
COC(=O)N[C@H](C(=O)N[C@@H](Cc1ccccc1)[C@@H](O)CN(Cc1ccc(-c2ccccn2)cc1)NC(=O)[C@@H](NC(=O)OC)C(C)(C)C)C(C)(C)C [Atazanavir, atazanavir] | 0.64 (0.54, 0.73) | 0.60 (0.49, 0.72) | 0.59 (0.43, 0.75) | 0.91 (0.81, 1.20) | 0.90 (0.70 1.10) | 0.90 (0.57, 1.23) | 1.01 (0.80, 1.19) | 1.02 (0.77, 1.28) | Additive- | – | 9 nM | 1.09 (0.67, 1.50) | – | – | – | – | – | – | – | additive to synergistic
